# Reference: ChEMBL document CHEMBL1129863, “Synthesis and biological evaluation of 5,6-diarylimidazo[2.1-b]thiazole as selective COX-2 inhibitors” (Bioorg Med Chem Lett, 1997)
# What was measured:
# [1] = biological target: T1, Prostaglandin G/H synthase 2 (Homo sapiens, UniProt P35354); format: cell-based, CHO
# T1 sequence (P35354 whole entry): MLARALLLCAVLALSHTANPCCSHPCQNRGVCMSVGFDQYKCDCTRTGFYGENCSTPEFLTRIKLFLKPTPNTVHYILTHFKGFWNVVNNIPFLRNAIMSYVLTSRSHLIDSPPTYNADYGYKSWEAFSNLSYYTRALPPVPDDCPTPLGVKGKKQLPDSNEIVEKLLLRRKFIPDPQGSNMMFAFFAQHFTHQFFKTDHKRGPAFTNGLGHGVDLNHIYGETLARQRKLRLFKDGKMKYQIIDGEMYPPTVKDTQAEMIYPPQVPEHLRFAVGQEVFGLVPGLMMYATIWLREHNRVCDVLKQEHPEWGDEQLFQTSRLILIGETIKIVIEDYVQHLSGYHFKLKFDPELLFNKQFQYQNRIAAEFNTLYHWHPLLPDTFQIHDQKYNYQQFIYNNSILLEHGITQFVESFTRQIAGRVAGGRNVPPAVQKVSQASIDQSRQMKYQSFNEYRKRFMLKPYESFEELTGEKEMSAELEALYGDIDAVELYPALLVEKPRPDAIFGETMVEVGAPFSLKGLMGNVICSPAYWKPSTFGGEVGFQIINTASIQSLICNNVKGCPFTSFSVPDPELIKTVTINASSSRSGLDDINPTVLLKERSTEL
# [2] = biological target: T2, Prostaglandin G/H synthase 1 (Homo sapiens, UniProt P23219)
# Description: In vitro inhibition of the production of PGE-2 in arachidonic acid stimulated chinese hamster ovary (CHO) cells transfected with human cyclooxygenase-1
# [3] = biological target: T1, Prostaglandin G/H synthase 2; assay: (§1) In vivo ability to inhibit cyclooxygenase-2 enzyme in human whole blood was determined; format: organism-based
# [4] = biological target: Prostaglandin G/H synthase 2 (Homo sapiens, UniProt P35354); assay: as §1; format: organism-based; remark: listed apart in the source
# Rattus norvegicus [5] = assay: Effective dose to inhibit carrageenan induced rat paw edema assay was determined; format: functional
# Rattus norvegicus [6] = organism: Rattus norvegicus; assay: animal or person; conditions: read-out: Inhibition
# Description: Percentage inhibition against carrageenan induced rat paw edema assay was determined at a dose of 10 mg/Kg
# [7] = biological target: T2, Prostaglandin G/H synthase 1; assay: In vivo ability to inhibit cyclooxygenase-1 enzyme in human whole blood was determined; format: organism-based
# [8] = Maximum concentration in rats at 1 hr was determined when dosed at 20 mg/Kg perorally; format: ADME, organism-based; design: dose 20 mg/Kg, route oral; conditions: rat, in vivo, po
# Rattus norvegicus [9] = assay: GI tolerance when rats were dosed at 100 mg/kg for 10 days in GI permeability assay; High level of GI tolerance; format: functional, organism-based; design: dose 100 mg/kg
# T2 sequence (P23219 whole entry): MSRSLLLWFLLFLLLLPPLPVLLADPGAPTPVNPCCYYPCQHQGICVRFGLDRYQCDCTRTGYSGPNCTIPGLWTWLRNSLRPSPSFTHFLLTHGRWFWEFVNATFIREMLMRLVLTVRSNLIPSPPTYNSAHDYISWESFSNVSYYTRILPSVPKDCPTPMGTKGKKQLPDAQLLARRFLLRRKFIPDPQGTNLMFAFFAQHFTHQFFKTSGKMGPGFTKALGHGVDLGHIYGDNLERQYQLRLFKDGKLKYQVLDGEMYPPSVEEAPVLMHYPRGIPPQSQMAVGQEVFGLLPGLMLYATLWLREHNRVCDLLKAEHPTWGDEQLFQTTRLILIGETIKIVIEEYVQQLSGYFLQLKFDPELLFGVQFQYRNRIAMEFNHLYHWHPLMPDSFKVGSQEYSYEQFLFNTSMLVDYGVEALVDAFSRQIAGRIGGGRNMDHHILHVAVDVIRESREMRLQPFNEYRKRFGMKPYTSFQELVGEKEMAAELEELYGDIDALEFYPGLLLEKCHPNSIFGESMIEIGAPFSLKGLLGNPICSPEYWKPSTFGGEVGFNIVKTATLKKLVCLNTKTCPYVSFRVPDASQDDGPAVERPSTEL
IC50 [1] [µM],IC50 [2] [µM],SMILES,other results
> 5,> 50,CS(=O)(=O)c1ccc(-c2nc3sc4ccccc4n3c2-c2ccccc2)cc1,
0.016,> 50,CS(=O)(=O)c1ccc(-c2c(-c3ccc(Cl)cc3)nc3sc(Cl)cn23)cc1,
3.21,> 50,CS(=O)(=O)c1ccc(-c2nc3sccn3c2-c2ccccc2)cc1,
5,0.078,CSc1ccc(-c2nc3sccn3c2-c2ccccc2)cc1,
1,> 50,Cc1csc2nc(-c3ccc(S(C)(=O)=O)cc3)c(-c3ccccc3)n12,
0.14,> 50,Cc1cn2c(-c3ccccc3)c(-c3ccc(S(C)(=O)=O)cc3)nc2s1,
0.42,0.32,CSc1ccc(-c2c(-c3ccccc3)nc3sccn23)cc1,
5,> 50,Cc1sc2nc(-c3ccccc3)c(-c3ccc(S(C)(=O)=O)cc3)n2c1C,
> 5,> 50,CS(=O)(=O)c1ccc(-c2c(-c3ccccc3)nc3sc4ccccc4n23)cc1,
3.6,> 50,CS(=O)(=O)c1ccc(-c2c(-c3ccc(Cl)cc3)nc3sc(Cl)c(Cl)n23)cc1,
0.012,> 50,Cc1cn2c(-c3ccc(S(C)(=O)=O)cc3)c(-c3ccccc3)nc2s1,IC50 [3]: 17.5 µM
0.014,> 50,CS(=O)(=O)c1ccc(-c2c(-c3ccc(F)cc3)nc3sccn23)cc1,IC50 [3]: 0.4 µM; IC50 [4]: 25 µM; ED50 (Rattus norvegicus [5]): 5 mg/kg
,,CS(=O)(=O)c1ccc(-c2cc(Br)sc2-c2ccc(F)cc2)cc1 [DUP-697],inhibition in vivo at 10 mg/kg (Rattus norvegicus [6]): 57%
0.016,> 50,CS(=O)(=O)c1ccc(-c2c(-c3ccccc3)nc3sccn23)cc1,IC50 [7]: > 30 µM; Cmax [8]: 1 µM; GI tolerance (Rattus norvegicus [9]): High level of GI tolerance; IC50 [3]: 0.9 µM; ED50 (Rattus norvegicus [5]): 2 mg/kg
> 5,> 50,Cc1sc2nc(-c3ccc(S(C)(=O)=O)cc3)c(-c3ccccc3)n2c1C,
0.9,,CCOC(=O)Cc1csc2nc(-c3ccccc3)c(-c3ccc(S(C)(=O)=O)cc3)n12,
> 5,,CS(=O)(=O)c1ccc(-c2c(-c3ccccc3)nc3scc(CC(=O)O)n23)cc1,
3,> 50,Cc1csc2nc(-c3ccccc3)c(-c3ccc(S(C)(=O)=O)cc3)n12,

SMILES,IC50 [1] [µM],IC50 [2] [µM],other results
CS(=O)(=O)c1ccc(-c2c(-c3ccc(F)c(F)c3)nc3sccn23)cc1,0.012,> 50,IC50 [3]: 2.2 µM
